From US20230374067A1, “NOVEL PEPTOIDS AND USE THEREOF FOR PREVENTING OR TREATING CHRONIC PAIN” (Université Clermont Auvergne, priority 2020, published 2023) come the findings set out here.

Square brackets hold non-standard residues; d marks the D form. Peptide text beside a SMILES is read from it. * marks the point of attachment. Gly(N-CH2CH2OH) = O=C(O)CNCCO; Nleu = CC(C)CNCC(=O)O; Bz = O=C(c1ccccc1)*

Series [1] concerns OIPN mice (oxaliplatin-induced neuropathy model mice). In words: Oxaliplatin-induced acute neuropathy in mice, paw immersion test (cold hypersensitivity). It counts as in vivo. The method, then: (§1) Immersion test: The tail or paw was immersed in a water bath set at 10° C. or 46° C. until shrinkage was observed (cut-off time: 30 s). The average of two separate determinations of withdrawal latency was calculated (Janssen, Niemegeers & Dony, 1963).
Oxaliplatin-induced acute neuropathy in mice: Mice were injected intraperitoneally (i.p.) with 6 mg/kg oxaliplatin dissolved in 5% glucose directly after the first behavioral assessment. At 90 h after drug administration, corresponding to the time required to reach peak hyperalgesia (Descoeur et al., 2011), a second assessment of cold sensitivity and mechanical sensitivity was performed.

In a further series the test system is neuropathic rats. Kind of series: Spinal nerve ligation induced neuropathy in rats, paw immersion test. To be noted: neuropathy induced by traumatic nerve injury, intrathecal, 5 μg. Format: in vivo. The method, then: as §1
Spinal nerve ligation induced neuropathy in rats: According to the procedure of Kim and Chung (1992), rats were placed in the […] position and anesthetized with 10 mg/kg xylazine and 75 mg/kg ketamine (i.p). The fur on the left side of the spine was then shaved to expose the skin. The skin was cut parallel to the spine and the paravertebral muscles were separated. The L5 transverse apophysis was removed until the L5 spinal nerve was exposed. The L5 nerve was isolated and ligated with silk thread. Finally, the muscle and skin incisions were sutured and the wound was disinfected with iodophor and 75% ethyl alcohol. In the sham group, the rats underwent the same surgical procedure without the nerve ligation.

In another series the test system is mice. Kind of series: Rotarod test (locomotor activity). Format: in vivo. Particulars: administered subcutaneously (2.5, 5, or 10 mg/kg, s.c.). As for the experimental part: Rotarod Test: For the Rotarod test (Bioseb), the animals were first habituated to remain on the stationary cylinder for 10 min before switching to another 10 min with a rotational speed of 4 rpm. The animals were given the drug immediately after training and the test was performed 30 min later. The test consisted of measuring the latency to fall of the animals as the rotation increased from 4 to 40 rpm linearly over 5 min. The average of the two closest values over 3 trials was calculated.

The target of series [2] is T1, interaction between HCN and the TRIP8b tail (Homo sapiens, UniProt Q8IYB4).
T1 sequence (Q8IYB4 265-626 limits assumed): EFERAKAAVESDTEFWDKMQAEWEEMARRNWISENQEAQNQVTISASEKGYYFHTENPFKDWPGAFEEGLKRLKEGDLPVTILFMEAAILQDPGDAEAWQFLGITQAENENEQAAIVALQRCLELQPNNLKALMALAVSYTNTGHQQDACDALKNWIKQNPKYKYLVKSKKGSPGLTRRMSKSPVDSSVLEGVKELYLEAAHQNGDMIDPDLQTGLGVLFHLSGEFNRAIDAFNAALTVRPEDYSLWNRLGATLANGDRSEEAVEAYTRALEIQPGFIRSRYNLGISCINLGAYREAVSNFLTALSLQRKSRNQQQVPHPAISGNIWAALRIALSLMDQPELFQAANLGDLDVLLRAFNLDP
Kind of series: Fluorescence polarization assay, disruption of TRIP8b-HCN interaction. To be noted: compared with NUCC5953. It counts as binding. The text has this:
Fluorescence polarization assay: a fluorescence polarization (FP) based assay was used to identify compounds capable of disrupting the interaction between HCN and the TRIP8b tail, as published (Han et al., 2015).

A further series has as its system PTX rats. Kind of series: Paclitaxel-induced neuropathy in rats (mechanical thresholds, paw immersion). Format: in vivo. To be noted: rat model of paclitaxel-induced neuropathy, i.t., 0.2, 1 or 5 μg. As for the experimental part:
as §1
Paw pressure test in rats: Rats were subjected to the paw pressure test previously described by Randall and Selitto (1957). Nociceptive thresholds, expressed in grams, were measured with a Ugo Basile analgesic meter (Apelex, probe tip diameter 1 mm, weight 30 g) by applying increasing pressure to the right hind paw of the rats until a pain sign (vocalization threshold) was obtained (cut-off was 750 g). Before the treatments, the rats were habituated to the test by handling them without subjecting them to paw pressure. Then, after obtaining two consecutive stable vocalization threshold values, the treatment effects were evaluated after 15, 30, 45, 60, 90, and 120 min. Results are expressed as vocalization thresholds, in grams. […] Data were analyzed by a 2-way ANOVA followed by a Bonferroni test, when the time course of the effects was studied. A one-way ANOVA followed by a Student Newman-Keuls test was used to analyze the effect of the different treatments determined by the CSAs. The level of statistical significance was set at p<0.05. […]

As to `CC(C)C[C@H](NC(=O)CCN(CCO)C(=O)CN(CCO)C(=O)CN(CC(C)C)C(=O)c1ccc([N+](=O)[O-])cc1)C(=O)O` [LF108], the analgesic effect result in series [1] (mouse, in vivo) was “demonstrated an analgesic effect”.
Take `Cc1ccc(C(=O)N(CC(=O)N(CCO)CC(=O)N(CCO)CCC(=O)N[C@@H](CC(C)C)C(=O)O)CC(C)C)cc1` [LF126]: in series [1] (mouse, in vivo), the analgesic effect result is given as “demonstrated an analgesic effect”.
Same read-out and setting: under `CC(C)C[C@H](NC(=O)CCN(CC(N)=O)C(=O)CN(CCO)C(=O)CN(CC(C)C)C(=O)c1ccccc1)C(=O)O` [LF176] stands “demonstrated an analgesic effect”; under `CC(C)C[C@H](NC(=O)CCN(CCO)C(=O)CN(CCO)C(=O)CN(CC(C)C)C(=O)c1ccc(C(F)(F)F)cc1)C(=O)O` [LF188], “demonstrated an analgesic effect”.
`CCCCN(CC(=O)N(CCO)CC(=O)N(CCO)CCC(=O)N[C@@H](CC(C)C)C(=O)O)C(=O)c1ccccc1` [LF222]: the analgesic effect result in series [1] (mouse, in vivo) was “demonstrated an analgesic effect”.
The same measure, in the same setting: under `CC(C)C[C@H](NC(=O)CCN(CCO)C(=O)CN(CCO)C(=O)CN(Cc1ccccc1)C(=O)C(C)C)C(=O)O` [LF239] stands “demonstrated an analgesic effect”; under `CC(C)C[C@H](NC(=O)CCN(CCO)C(=O)CN(CCO)C(=O)CN(CC(C)C)C(=O)c1ccc(F)cc1)C(=O)O` [LF261], “demonstrated an analgesic effect”.
On the same count and under the same terms, in the case of `CC(C)C[C@H](NC(=O)CCN(CCO)C(=O)CN(CCO)C(=O)CN(C(=O)c1ccccc1)C(C)C)C(=O)O` [LF295] it was “demonstrated an analgesic effect”.
Same read-out and setting: in the case of `CC(C)C[C@H](NC(=O)CCN(CCO)C(=O)CN(CCO)C(=O)CN(CC(C)(C)C)C(=O)c1ccccc1)C(=O)O` [LF306] it was “demonstrated an analgesic effect”; in that of `CC(C)C[C@H](NC(=O)CCN(CCO)C(=O)CN(CCN)C(=O)CN(CC(C)C)C(=O)c1ccccc1)C(=O)O` [LF329], “demonstrated an analgesic effect”.
With `CC(=O)N(CCO)CC(=O)N(CCO)CCC(=O)N[C@@H](CC(C)C)C(=O)O` [LF369], in series [1] (OIPN mice, 5 μg, i.t.), the analgesic effect entry is “demonstrated an analgesic effect”.
Turning to `Cc1cccc(C(=O)N(CC(=O)N(CCO)CC(=O)N(CCO)CCC(=O)N[C@@H](CC(C)C)C(=O)O)CC(C)C)c1` [LF400], in series [1] (mouse, in vivo), the analgesic effect result was “demonstrated an analgesic effect”.
In the case of `CC(C)C[C@H](NC(=O)CCN(CCO)C(=O)CN(CCO)C(=O)CN(Cc1ccccc1)C(=O)c1ccccc1)C(=O)O` [MP208], in series [1] (mouse, in vivo), the analgesic effect result was “demonstrated an analgesic effect”.
For `CC(C)C[C@H](NC(=O)CCN(CCO)C(=O)CN(CCO)C(=O)CN(CC(C)C)C(=O)Cc1ccccc1)C(=O)O` [MP341], in series [1] (OIPN mice, 10 mg/kg, s.c.), the analgesic effect entry is “demonstrated an analgesic effect”.
On the same count and under the same terms, under `CC(C)C[C@H](NC(=O)CCN(CCCO)C(=O)CN(CCO)C(=O)CN(CC(C)C)C(=O)c1ccccc1)C(=O)O` [MP354] stands “demonstrated an analgesic effect”; under `CC(C)C[C@H](NC(=O)CCN(CCO)C(=O)CN(CCCO)C(=O)CN(CC(C)C)C(=O)c1ccccc1)C(=O)O` [MP376], “demonstrated an analgesic effect”.
Consider `CC(C)C[C@H](NC(=O)CN(CCO)C(=O)CN(CCO)C(=O)CN(CC(C)C)C(=O)c1ccccc1)C(=O)O` [MP405] (Bz-[Nleu][Gly(N-CH2CH2OH)][Gly(N-CH2CH2OH)]L-OH), for which, in series [1] (mouse, in vivo), the analgesic effect entry is reported as “demonstrated an analgesic effect”.
In the case of `CC(C)C[C@H](NC(=O)CCN(CCO)C(=O)CN(CCO)C(=O)CN(CC(C)C)C(=O)c1ccccc1)C(=O)O` [YC55], the antihyperalgesic effect entry in the series on neuropathic rats is “antihyperalgesic effect”. The “alteration in locomotor activity” value with mice was “No alteration in locomotor activity”. In addition, the “dose-dependent analgesic effect / reversal of oxaliplatin-induced acute cold hypersensitivity” value in series [1] (OIPN mice, i.t., 0.2, 1, 5 μg/mouse) is recorded as “dose-dependent analgesic effect”. The dose-dependent analgesic effect result in series [1] (OIPN mice, s.c., 2.5, 5 or 10 mg/kg) is reported as “dose-dependent analgesic effect”; with PTX rats, “dose-dependent analgesic effect”. Further, in series [2], the “potency in disrupting the TRIP8b-HCN interaction” value is reported as “equal potency to NUCC5953”.
